The source of these data is paper PMC7793975, “Design and Optimization of Quinazoline Derivatives: New Non-nucleoside Inhibitors of Bovine Viral Diarrhea Virus” (Frontiers in Chemistry, 2020).

The structures appear in SMILES notation. ≈ marks a conversion by molar mass, not a printed value. Where “and” joins values, the source holds several entries; their conditions need not be identical. Equal entries are not always repeated. Where two headings read alike, the source gives them in different places. Bounds are passed on as bounds.

In one data set the test system is BVDV type 1 NADL strain. Nature of the data set: Anti-BVDV assay (CPE reduction, MTS/PMS). It is filed as cell-based, Bovine viral diarrhea virus. The following applies: for EC50: BVDV NADL in MDBK cells, MOI 0.01, 3 days, reduces viral CPE by 50%, Inactive: <50% of inhibition of CPE at MNCC. The procedure: (A) Cytotoxicity. […] Mock-treated cells were added as control. […] (B) Antiviral activity.
Madin-Darby bovine kidney cells (MDBK NBL-1; ATCC CCL-22) were grown in Eagle's Minimum Essential Medium (E-MEM), supplemented with 10% biotechnological fetal bovine serum (Internegocios, Argentina) (GM) at 37°C and 5% CO2. The BVDV type 1 NADL strain, cytopathic biotype (BVDV-1, ATCC VR 534), was provided by Dr. Laura Weber (INTA Castelar, Argentina).
Then, serial dilutions of the test compounds in IM were added. […] After incubation for 3 days at 37°C and 5% CO2, the culture medium was removed, cell monolayers were washed twice with PBS, and IM supplemented with MTS/PMS was added to each well. The absorbance of each well was read at 490 nm. The EC50 was defined as the concentration of compound that prevented 50% of the virus-induced CPE and was calculated by interpolation in dose–response curves.

Data set [1] is described as follows: Stability in SGF, SIF, PBS (HPLC-MS). It is filed as physicochemical. The procedure:
Stability assays were performed according to the procedure described in a previous work (Leal et al., [2019]). Samples were taken at different incubation times and analyzed by high-performance liquid chromatography–mass spectrometry (HPLC–MS) using a Waters Alliance e2695 system (Waters Corporation, Milford, MA, USA) fitted with a Phenomenex Kinetex® XB-C18 column (150 × 4.6 mm, 5-μm particle size, Phenomenex Inc., Torrance, CA, USA) coupled to a Waters SQD2 single quadrupole mass spectrometer with an ESI source. A gradient elution was applied using 40% water and 0.1% acetic acid (mobile phase A) and 40% methanol (mobile phase B), with the following program: 0–3 min 40% B; 3–7 min 40–90% B; and 7–20 min 90% B. The flow rate was kept constant at 0.35 ml min^−1. After each sample injection, the gradient was returned to its initial conditions in 16 min. The injection volume was 5 μl. The column temperature was 35°C. The mass spectrometer was operated in positive ion mode with a probe capillary voltage of 2.5 kV. The sampling cone voltage was set to 35.0 V. The source and desolvation gas temperatures were set at 150 and 350°C, respectively. The nitrogen gas desolvation flow rate was 600 L h^−1, and the cone gas flow rate was 10 L h^−1. The mass spectrometer was calibrated across the range of m/z 20–2,023 with a sodium and cesium iodide solution. Data were acquired in scan mode with a scan duration of 0.2 s and in SIR mode with unit resolution. Data acquisition and processing were carried out using MassLynx software, version 4.1. […]
(§1) Compound 1.9 was selected to perform in vitro physicochemical studies (solubility and stability). The solubility (S) was evaluated at SGF (pH 1.2), SIF (pH 6.8), and PBS solution (pH 7.4), employing the shake-flask method with UV spectroscopy (Bollini et al., [2013]). […] The stability was evaluated by calculating the percentage of remaining drug (HPLC–MS) after contact with different incubation media (SIF, SGF, PBS, mouse, and bovine plasma) for 120 min. […] Neither compound modification nor degradation was detected after the different incubation periods. […]

Data set [2] in a line: Shake-flask solubility (UV-Vis). It is filed as physicochemical. To be noted: thermodynamic from solid. The procedure: Verapamil was used as internal control. More detailed information is available in the Supplementary Material.
(§2) UV-Visible spectrums were measured with a UV3600 UV -Vis-NIR spectrophotometer in a range of 500 -200 nm using a quartz cuvette. The measurements were determined at λ values corresponding to the maximum of absorption . Baselines were determined with MeOH :media (1:1) mixture . Sample concentrations were determined using maximum absorption value s. All compounds were tested in […]
(§3) Preparation of calibration curve
(§4) From this solution, different volumes were combined with MeOH:media (1:1) mixture to obtain concentrations between 2.0 – 40.0 µg/mL. […]
(§5) intestinal fluid (SIF, pH 6.8) or phosphate buffered saline solution (PBS, pH 7.4) was added. The vial contents were mixed at 1500 rpm at 37 °C for 24 h and then incubated at 37 °C for 24 h without stirring. Samples were filtered (0.2 μm, Sterile Acrodisc® 13, GelmanScience) before analysis.
(§6) The filtered solutions were diluted in MeOH:media (1:1) mixture to achieved final concentrations of 0.01 (SGF), 0.02 (SIF) and 0.04 µg/mL (PBS). Verapamil and pr ocaine were used as internal […]
(§7) DMSO and water/DMSO (98:2) stability […]
were measured in a range of 500-200 nm using a quartz cuvette and the absorption was determined at 331 nm. Samples with 1.0 mg of 1.9 in 1 mL of DMSO or water/DMSO (98:2) mixture were prepared, and they were kept at room temperature without stir ring. Independent samples were measured every 1 week over 5 weeks. For the measurements, solutions were diluted at 1/100 in DMSO and 1/50 in water:DMSO (98:2) mixture. The values in the chart are the mean of three

A short description of data set [3]: Cytotoxicity assay (MTS/PMS). To be noted: bovine, MDBK cells. The procedure:
(§8) (A) Cytotoxicity. Sub-confluent MDBK cell monolayers grown in 96-well plates were treated with 2-fold serial dilutions of each compound in IM. Mock-treated cells were added as control. Cells were incubated and allowed to proliferate for 3 days at 37°C and 5% CO2. Cell viability was then determined by the MTS/PMS method. (B) Antiviral activity. Sub-confluent MDBK cell monolayers grown in 96-well plates were infected with BVDV NADL (MOI = 0.01) and treated with different concentrations of the compounds. Mock-infected cells and mock-treated infected cells were included as controls in each plate. After 3 days at 37°C and 5% CO2, cell viability was determined by the MTS/PMS method, and the percentage of the viral CPE inhibition was calculated.
(§9) MDBK cells were seeded in 96-well plates at a density of 1 × 10^4 cells per well in GM. After 24 h, the culture medium was removed, monolayers were washed twice with phosphate-buffered saline (PBS), and serial dilutions of the test compounds were made in E-MEM supplemented with donor horse serum (DHS, Gibco, IM) and added. Cultures were incubated for 3 days at 37°C, and then, cell viability was determined by the MTS/PMS method according to the manufacturer's instructions (Promega). After incubation for 3 h at 37°C and 5% CO2, the absorbance was determined at 490 nm. The 50% cytotoxic concentration (CC50) was defined as the concentration of compound that inhibited the proliferation of exponentially growing cells by 50% and was calculated by interpolation in dose–response curves.

For a further data set, the system named is MDBK cells. Nature of the data set: Cytotoxicity assay (MTS/PMS). To be noted: MDBK cells, 3 days. The procedure: as §8, §9
A short description of data set [4]: Mouse plasma stability (HPLC-MS). It is filed as in vitro ADME. The following applies: mouse/murine plasma, 120 min incubation; read-out: Stability t1/2 Mouse/murine plasma. How it is done:
(§10) Stability assays were performed according to the procedure described in a previous work (Leal et al., [2019]). Samples were taken at different incubation times and analyzed by high-performance liquid chromatography–mass spectrometry (HPLC–MS) using a Waters Alliance e2695 system (Waters Corporation, Milford, MA, USA) fitted with a Phenomenex Kinetex® XB-C18 column (150 × 4.6 mm, 5-μm particle size, Phenomenex Inc., Torrance, CA, USA) coupled to a Waters SQD2 single quadrupole mass spectrometer with an ESI source. A gradient elution was applied using 40% water and 0.1% acetic acid (mobile phase A) and 40% methanol (mobile phase B), with the following program: 0–3 min 40% B; 3–7 min 40–90% B; and 7–20 min 90% B. The flow rate was kept constant at 0.35 ml min^−1. […]
as §1

Data set [5] in a line: DMSO and water/DMSO (98:2) stability (UV-Vis). The format is physicochemical. The following applies: room temperature. The procedure:
as §2, §3, §4, §5, §6, §7
were measured in a range of 500-200 nm using a quartz cuvette and the absorption was determined at 331 nm. Samples with 1.0 mg of 1.9 in 1 mL of DMSO or water/DMSO (98:2) mixture were prepared, and they were kept at room temperature without stir ring. Independent samples were measured every 1 week over 5 weeks. […]

A short description of data set [6]: Bovine plasma stability (HPLC-MS). It is filed as in vitro ADME. The following applies: 120 min incubation, read-out: Stability t1/2 Bovine plasma. How it is done: as §10, §1

With `OCCN1CCN(c2nc(-c3ccccc3)nc3ccccc23)CC1` [Compound 1.9, 2-[4-(2-Phenylquinazolin-4-yl)piperazin-1-yl]ethanol], the EC50 (in general, the concentration at which the effect is half-maximal) worked out at 1800 ± 400 nM with BVDV type 1 NADL strain (read-out: EC50); 1700 ± 400 nM with BVDV type 1 NADL strain (Bovine viral diarrhea virus isolates and strains, MDBK, 72 h). Further, the “SI (CC50/EC50)” value in the data set on BVDV type 1 NADL strain (in vitro selectivity index, MDBK cells / BVDV NADL) is 17.8. In addition, the half-life was more than 120 min in data set [1] (PBS pH 7.4, 120 min incubation, read-out: Stability t1/2 PBS); more than 120 min in data set [1] (simulated gastric fluid (SGF), SGF pH 1.2, 120 min incubation, read-out: Stability t1/2 SGF); more than 120 min in data set [1] (simulated intestinal fluid (SIF), SIF pH 6.8, 120 min incubation, read-out: Stability t1/2 SIF); more than 120 min in data set [4]; more than 120 min in data set [6]. Also, the solubility (commonly the dissolved amount per volume that the medium holds) at 24 h was 300 ± 100 µg/mL (≈ 897 µM) in data set [2] (phosphate buffered saline (PBS), aqueous buffer, PBS pH 7.4, 37 °C, read-out: Solubility PBS); 8700 ± 400 µg/mL (≈ 26000 µM) in data set [2] (simulated gastric fluid (SGF), simulated gastric fluid pH 1.2, 37 °C, read-out: Solubility SGF); 400 ± 200 µg/mL (≈ 1200 µM) in data set [2] (simulated intestinal fluid (SIF), fassgf or other biorelevant, simulated intestinal fluid pH 6.8, 37 °C, read-out: Solubility SIF). Moreover, in data set [3], it took 32 ± 1.9 µM to reach half-maximal cytotoxicity (CC50 at 3 days). Further, the “MNCC (maximum non-cytotoxic concentration)” value in the data set on MDBK cells is 12.5 µM and 12.5 ± 2.4 µM. The “time stable in DMSO” value in data set [5] (1.0 mg/mL in DMSO) is reported as not below 5 weeks. Moreover, the “time stable in water/DMSO (98:2)” value in data set [5] (1.0 mg/mL in water/DMSO (98:2)) is reported as not below 5 weeks.
